Laboratory results reported in US8722578B2, “Spiroheterocyclic pyrrolidinedione herbicidal compositions” (Syngenta Participations AG, priority 2008, dated 2014).

Key:
Setaria faberi (SETFA) [1] = test: Example A pre-emergence herbicidal activity, glasshouse pot test; assay type: in vivo; settings: 480 h, rate 250 g/ha, evaluated 20 days after spraying, read-out: SETFA pre-emergence activity (100=total damage to plant; 0=no damage to plant)
Protocol: (§1) Monocotyledonous and dicotyledonous test plants are sown in standard soil in pots. After cultivation for one day (pre-emergence) or after 10 days cultivation (post-emergence) under controlled conditions in a glasshouse, the plants are sprayed with an aqueous spray solution derived from the formulation of the technical active ingredient in 0.6 ml acetone and 45 ml formulation solution containing 10.6% Emulsogen EL (Registry number 61791-12-6), 42.2% N-methylpyrrolidone, 42.2% dipropylene glycol monomethyl ether (Registry number 34590-94-8) and 0.2% X-77 (Registry number 11097-66-8). The test plants are then grown in a greenhouse under optimum conditions until, 15 days later for post-emergence and 20 days for pre-emergence, the test is evaluated (100=total damage to plant; 0=no damage to plant). Test Plants: Alopecurus myosuroides (ALOMY), Avena fatua (AVEFA), Lolium perenne (LOLPE), Setaria faberi (SETFA), Digitaria sanguinalis (DIGSA), Echinochloa crus-galli (ECHCG) Pre-Emergence Activity

Avena fatua (AVEFA) [2] = test: as above; assay type: in vivo; settings: 480 h, rate 250 g/ha, evaluated 20 days after spraying, read-out: AVEFA pre-emergence activity (100=total damage to plant; 0=no damage to plant)
Protocol: as §1

Lolium perenne (LOLPE) [3] = test: as above; assay type: in vivo; settings: 480 h, rate 250 g/ha, evaluated 20 days after spraying, read-out: LOLPE pre-emergence activity (100=total damage to plant; 0=no damage to plant)
Protocol: as §1

[4] = tested on: Digitaria sanguinalis (DIGSA); test: as above; assay type: in vivo; settings: 480 h, rate 250 g/ha, evaluated 20 days after spraying, read-out: DIGSA pre-emergence activity (100=total damage to plant; 0=no damage to plant)
Protocol: as §1

[5] = tested on: Alopecurus myosuroides (ALOMY); test: as above; assay type: in vivo; settings: 480 h, rate 250 g/ha, evaluated 20 days after spraying, read-out: ALOMY pre-emergence activity (100=total damage to plant; 0=no damage to plant)
Protocol: as §1

[6] = tested on: Echinochloa crus-galli (ECHCG); test: as above; assay type: in vivo; settings: 480 h, rate 250 g/ha, evaluated 20 days after spraying, read-out: ECHOG pre-emergence activity (100=total damage to plant; 0=no damage to plant)
Protocol: as §1

Setaria faberi (SETFA) [7] = test: Example B pre-emergence herbicidal activity, glasshouse pot test; assay type: in vivo; settings: 312 h, first table (headed Post-Emergence, taken as pre-emergence), evaluated after 13 days, read-out: SETFA activity (100=total damage to plant; 0=no damage to plant)
Protocol: (§2) Seeds of a variety of test species are sown in standard soil in pots. After cultivation for one day (pre-emergence) or after 8 days cultivation (post-emergence) under controlled conditions in a glasshouse (at 24/16° C., day/night; 14 hours light; 65% humidity), the plants are sprayed with an aqueous spray solution derived from the formulation of the technical active ingredient in acetone/water (50:50) solution containing 0.5% Tween 20 (polyoxyethelyene sorbitan monolaurate, CAS RN 9005-64-5). The test plants are then grown in a glasshouse under controlled conditions in a glasshouse (at 24/16° C., day/night; 14 hours light; 65% humidity) and watered twice daily. After 13 days for pre and post-emergence, the test is evaluated (100=total damage to plant; 0=no damage to plant). Test Plants: Setaria faberi (SETFA), Alopecurus myosuroides (ALOMY), Echinochloa crus-galli (ECHCG), Avena fatua (AVEFA)

Avena fatua (AVEFA) [8] = test: as above; assay type: in vivo; settings: 312 h, first table (headed Post-Emergence, taken as pre-emergence), evaluated after 13 days, read-out: AVEFA activity (100=total damage to plant; 0=no damage to plant)
Protocol: as §2

[9] = tested on: Alopecurus myosuroides (ALOMY); test: as above; assay type: in vivo; settings: 312 h, first table (headed Post-Emergence, taken as pre-emergence), evaluated after 13 days, read-out: ALOMY activity (100=total damage to plant; 0=no damage to plant)
Protocol: as §2

[10] = tested on: Echinochloa crus-galli (ECHCG); test: as above; assay type: in vivo; settings: 312 h, first table (headed Post-Emergence, taken as pre-emergence), evaluated after 13 days, read-out: ECHCG activity (100=total damage to plant; 0=no damage to plant)
Protocol: as §2

Setaria faberi (SETFA) [11] = test: Example B post-emergence herbicidal activity, glasshouse pot test; assay type: in vivo; settings: 312 h, evaluated after 13 days, read-out: SETFA post-emergence activity (100=total damage to plant; 0=no damage to plant)
Procedure, shortened: (§3)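 Sow seeds in pots of standard soil and grow at 24/16° C day/night, 14 h light, 65% humidity. Spray at 1 day (pre-emergence) or 8 days (post-emergence) with compound in acetone/water (50:50), 0.5% Tween 20. Water twice daily, then score plant damage 0–100 after 13 days.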

Avena fatua (AVEFA) [12] = test: as above; assay type: in vivo; settings: 312 h, evaluated after 13 days, read-out: AVEFA post-emergence activity (100=total damage to plant; 0=no damage to plant)
Procedure, shortened: as §3

[13] = tested on: Alopecurus myosuroides (ALOMY); test: as above; assay type: in vivo; settings: 312 h, evaluated after 13 days, read-out: ALOMY post-emergence activity (100=total damage to plant; 0=no damage to plant)
Procedure, shortened: as §3

[14] = tested on: Echinochloa crus-galli (ECHCG); test: as above; assay type: in vivo; settings: 312 h, evaluated after 13 days, read-out: ECHCG post-emergence activity (100=total damage to plant; 0=no damage to plant)
Procedure, shortened: as §3

Setaria faberi (SETFA) [15] = test: Example A post-emergence herbicidal activity, glasshouse pot test; assay type: in vivo; settings: 360 h, rate 125 g/ha, evaluated 15 days after spraying, read-out: SETFA post-emergence activity (100=total damage to plant; 0=no damage to plant)
Protocol: as §1, with “Post-Emergence” for “Pre-Emergence”

Avena fatua (AVEFA) [16] = test: as above; assay type: in vivo; settings: 360 h, rate 125 g/ha, evaluated 15 days after spraying, read-out: AVEFA post-emergence activity (100=total damage to plant; 0=no damage to plant)
Protocol: as §1, with “Post-Emergence” for “Pre-Emergence”

Lolium perenne (LOLPE) [17] = test: as above; assay type: in vivo; settings: 360 h, rate 125 g/ha, evaluated 15 days after spraying, read-out: LOLPE post-emergence activity (100=total damage to plant; 0=no damage to plant)
Protocol: as §1, with “Post-Emergence” for “Pre-Emergence”

[18] = tested on: Digitaria sanguinalis (DIGSA); test: as above; assay type: in vivo; settings: 360 h, rate 125 g/ha, evaluated 15 days after spraying, read-out: DIGSA post-emergence activity (100=total damage to plant; 0=no damage to plant)
Protocol: as §1, with “Post-Emergence” for “Pre-Emergence”

[19] = tested on: Alopecurus myosuroides (ALOMY); test: as above; assay type: in vivo; settings: 360 h, rate 125 g/ha, evaluated 15 days after spraying, read-out: ALOMY post-emergence activity (100=total damage to plant; 0=no damage to plant)
Protocol: as §1, with “Post-Emergence” for “Pre-Emergence”

[20] = tested on: Echinochloa crus-galli (ECHCG); test: as above; assay type: in vivo; settings: 360 h, rate 125 g/ha, evaluated 15 days after spraying, read-out: ECHOG post-emergence activity (100=total damage to plant; 0=no damage to plant)
Protocol: as §1, with “Post-Emergence” for “Pre-Emergence”

Row | Structure (SMILES) | pest or weed control at 250 g/ha (Setaria faberi (SETFA) [1]) [%] | pest or weed control at 250 g/ha (Avena fatua (AVEFA) [2]) [%] | pest or weed control at 250 g/ha (Lolium perenne (LOLPE) [3]) [%] | pest or weed control at 250 g/ha [4] [%] | pest or weed control at 250 g/ha [5] [%] | pest or weed control at 250 g/ha [6] [%] | melting point [°C] | pest or weed control at 125 g/ha (Setaria faberi (SETFA) [15]) [%] | pest or weed control at 125 g/ha (Avena fatua (AVEFA) [16]) [%] | pest or weed control at 125 g/ha (Lolium perenne (LOLPE) [17]) [%] | pest or weed control at 125 g/ha [18] [%] | pest or weed control at 125 g/ha [19] [%] | pest or weed control at 125 g/ha [20] [%] | other results
1 | CCOC(=O)OC1=C(c2cc(-c3ccc(Cl)cc3)ccc2C)C(=O)NC12CCN(OC)CC2 [Compound P29] | 0 | 50 | 10 | 20 | 20 | 60 | 209 to 211 | 90 | 90 | 80 | 100 | 90 | 100 | pest or weed control at 1000 g/ha (Setaria faberi (SETFA) [7]; rate 1000 g/ha): 100%; pest or weed control at 1000 g/ha (Avena fatua (AVEFA) [8]; rate 1000 g/ha): 90%; pest or weed control at 1000 g/ha ([9]; rate 1000 g/ha): 70%; pest or weed control at 1000 g/ha ([10]; rate 1000 g/ha): 100%; pest or weed control at 1000 g/ha (Setaria faberi (SETFA) [11]; rate 1000 g/ha): 100%; pest or weed control at 1000 g/ha (Avena fatua (AVEFA) [12]; rate 1000 g/ha): 100%; pest or weed control at 1000 g/ha ([13]; rate 1000 g/ha): 100%; pest or weed control at 1000 g/ha ([14]; rate 1000 g/ha): 100%
2 | CON1CCC2(CC1)NC(=O)C(c1c(C)cc(-c3ccc(Cl)cc3)cc1C)C2=O (stereo not drawn) [Compound T23] | 100 | 50 | 40 | 100 | 40 | 100 | 255 to 257 | 100 | 100 | 80 | 100 | 100 | 100 | pest or weed control at 250 g/ha (Setaria faberi (SETFA) [7]; rate 250 g/ha): 100%; pest or weed control at 250 g/ha (Avena fatua (AVEFA) [8]; rate 250 g/ha): 90%; pest or weed control at 250 g/ha ([9]; rate 250 g/ha): 70%; pest or weed control at 250 g/ha ([10]; rate 250 g/ha): 90%; pest or weed control at 250 g/ha (Setaria faberi (SETFA) [11]; rate 250 g/ha): 100%; pest or weed control at 250 g/ha (Avena fatua (AVEFA) [12]; rate 250 g/ha): 100%; pest or weed control at 250 g/ha ([13]; rate 250 g/ha): 100%; pest or weed control at 250 g/ha ([14]; rate 250 g/ha): 100%
